Results published in US10941109B2, “Compositions and methods of treatment using a BCAT1 inhibitor” (Ergon Pharmaceuticals, LLC, priority 2011, dated 2021).

Tested on: TGF-β1-stimulated human fibroblasts
Assay: Collagen I production from TGF-β1-stimulated human fibroblasts (ELISA)
Format: cell-based
Details: for inhibition of collagen I secretion: at a concentration of 5-10 mM; for % Control Collagen Production: 30 min pretreatment, 7 ng/mL TGF-β1 for 48 hrs, collagen I per μg cell lysate
Procedure: In vitro fibrosis is assessed by measuring collagen synthesis after treatment of fibroblast cells with a profibrotic stimuli such as TGF-β1 or bleomycin. Collagen secretion into the media can be quantified in conditioned media using an appropriate ELISA kit.
Confluent monolayers of human fibroblasts, plated onto duplicate 35 mm dishes, were pretreated with various concentrations of compounds 2, 6, and 7 for 30 min followed by stimulation of the cells with 7 ng/mL TGF-β1 for 48 hrs. At the end of the experiment, conditioned media were collected and assessed for the presence of secreted collagen I, whereas cells were collected and lysed. Collagen I secretion was quantified using an ELISA kit from R&D Systems per the manufacturer's instructions and expressed as arbitrary absorbance units per μg of cell lysate. In Table 2, results are shown as % Control Collagen Production, defined as the amount of collagen I secreted per μg of cell lysate from fibroblast cultures stimulated with TGF-β1 in the absence of an inhibitor.

| Structure (SMILES) | inhibition of collagen I secretion | % Control Collagen Production (compound concentration 5 mM) [%] | % Control Collagen Production (compound concentration 10 mM) [%] | % Control Collagen Production (compound concentration 2 mM) [%] |
| --- | --- | --- | --- | --- |
| CC(=O)C(C)CC(Cc1ccccc1)C(=O)O (stereo not drawn) [Compound 2, 2-benzyl-4-methyl-5-oxohexanoic acid] | completely inhibit | 4 | – | – |
| CC(CCC(=O)O)C(=O)c1ccccc1 (stereo not drawn) [Compound 6, 4-methyl-5-oxo-5-phenylpentanoic acid] | completely inhibit | 77 | 2 | – |
| CC(=O)C(CCC(=O)O)c1ccccc1 (stereo not drawn) [Compound 7, 5-oxo-4-phenylhexanoic acid] | completely inhibit | 41 | 2 | 150 |
